Data on 14 compounds can be found in PubChem BioAssay (NCI).

Holding throughout (experiment): DTP human tumour cell line panel, 48 h
Test [1] concerns SF-268 CNS.
Test [2] deals with OVCAR-8 ovarian.
Test [3] relates to DU-145 prostate.
In test [4] the test system is A498 renal.
Test [5] deals with COLO 205 colon.
Test [6] has as its system SK-MEL-28 melanoma.
Test [7] has as its system MDA-MB-435.
In test [8] the test system is T-47D breast.
The subject of test [9] is RXF 393 renal.
The test system of test [10] is CAKI-1 renal.

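Results reflect a 48-hour exposure of cells in 96-well plates to compound at five concentrations. TGI: concentration producing complete growth inhibition.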 A value given as a limit tells only on which side of the number the result lay.

For `O=C(CNc1ccccc1[N+](=O)[O-])Nn1c(-c2ccccc2)nc2ccccc2c1=O`, the TGI (commonly the concentration at which net growth stops) in [1] was above 100 µM; in [2], above 100 µM; in [3] it was above 100 µM; in [4], 81.1 µM; in [5], 53.9 µM; in test [6] it was 59.2 µM. Also, the TGI in [7] was found to be 60.1 µM; in [8], 39.2 µM; in test [9] it was 38.9 µM.
Take `CCN(CC)CCNC(=O)c1cn2c(ccc3sc4ccccc4c(=O)c32)n1`: the concentration for total growth inhibition (TGI) in test [1] worked out at 24.8 µM; in [2] it was 31.8 µM; in test [3], 25 µM; in test [4], 33.4 µM; in test [5], 21.1 µM; in [10] it was 24.2 µM. Moreover, the concentration for total growth inhibition (TGI) in test [6] was 25.6 µM; in test [7], 54 µM; in test [8] it was 30 µM; in test [9], 24.2 µM.
`O=C(Cc1ccccc1)Nn1c(-c2ccccc2)nc2ccccc2c1=O`: the concentration for total growth inhibition (TGI) in test [1], in test [2], in test [3], in [4], in [5] and in test [6] was above 100 µM throughout. For the same compound, the TGI in [7], in test [8] and in [9] was above 100 µM each time.
As for `Cc1noc(NC2=CC(=O)C(=O)c3ccccc32)c1C`, the TGI in [1], in test [2], in test [3], in [4], in [5] and in [10] was above 100 µM each time. In addition, the TGI is above 100 µM in test [6], 0.397 µM in [7] and above 100 µM in test [8].
Regarding `O=C(O)/C(Cc1ccc([N+](=O)[O-])cc1)=N\O`, the TGI in [1], in test [2], in test [3], in [4], in test [5] and in [10] was above 100 µM each time. Further, the TGI in test [6], in test [7], in [8] and in test [9] was above 100 µM throughout.
Consider `CCOC(=O)CNc1nc(=O)c2c(=O)oc(Cl)cc2o1`, for which the concentration for total growth inhibition (TGI) in test [1] was 27.9 µM; in test [2], 23.2 µM; in test [3] it was above 100 µM; in test [4], 38 µM; in [5], above 100 µM; in [10], 29.1 µM. The figures for the TGI in [6], in [7] and in test [8] were 63.7 µM, 35.4 µM and 61.7 µM, respectively.
Regarding `COC(=O)[C@H](Cc1c[nH]c2ccccc12)NC(=O)c1ccc(CNC(=O)/C=C/c2cccc(Oc3ccccc3)c2)cc1`, the TGI in [1], in test [2], in [3], in test [4], in [5] and in test [10] was above 100 µM in each case. Moreover, the TGI in [6] was above 100 µM; in test [7], 27.8 µM; in test [8], above 100 µM; in test [9], 81.6 µM.
As to `CCCCCCCCCCCCCCCC(=O)N(CCCCCCCCCCC(=O)O)CC(O)C(O)C(OC1OC(CO)C(O)C(O)C1O)C(O)CO` (centres undefined), the TGI was 48.9 µM in [1]; 66 µM in test [2]; above 100 µM in test [3]; above 100 µM in [4]; 32.6 µM in [5]; above 100 µM in test [10]. In addition, the TGI was 34.6 µM in [6], above 100 µM in test [7], above 100 µM in [8] and above 100 µM in test [9].
In the case of `CCOP(=O)(OCC)C(C#N)Cc1ccco1` (centres undefined), the TGI in test [1], in test [2], in test [3], in test [4], in test [5] and in test [10] was above 10 µM each time. Also, the concentration for total growth inhibition (TGI) in [6], in test [7], in test [8] and in [9] was above 10 µM throughout.
As for `CCCCCCCCCCCCCCCCOC[C@@H](COC(c1ccccc1)(c1ccccc1)c1ccccc1)O[P+](=S)OC` (some centres undefined), the TGI in test [1] is 28.6 µM; in test [2], 48.9 µM; in test [3], 30.6 µM; in test [4], 26.1 µM; in test [5], 38.6 µM; in [10], 23.8 µM. For the same compound, the results for the TGI in test [7], in [8] and in [9] were 5.5 µM, 45 µM and 22.7 µM, respectively.
Consider `CC(=O)N=C1N(/C=C2\C(=O)Oc3ccccc3C2=O)C(=O)/C(=C/c2ccc(Cl)cc2Cl)N1C`, for which the concentration for total growth inhibition (TGI) in [1], in [2], in test [3], in test [4], in [5] and in [10] was above 100 µM in each case. Besides, the TGI in test [6], in test [7], in test [8] and in test [9] was above 100 µM in each case.
`CCOP(=O)(OCC)C(N)c1ccc(Cl)cc1` (centres undefined): the TGI in test [1], in test [2], in test [3], in test [4], in test [5] and in test [10] was above 100 µM in each case. Also, the concentration for total growth inhibition (TGI) in test [6], in test [7] and in test [8] was above 100 µM throughout.
Take `CC1=C(C(=O)c2ccccc2)C23C(=O)N(c4ccccc4)C(=O)C2=C(O)C=CC3(O)N1` (centres undefined): the TGI is above 100 µM in test [1]; 98.9 µM in test [2]; above 100 µM in test [3]; above 100 µM in test [4]; above 100 µM in test [5]; above 100 µM in [10]. The TGI was 39.2 µM in [6], above 100 µM in test [7], above 100 µM in test [8] and 43 µM in test [9].
`COc1ccc(N2C=Nn3c(nc4sc5c(c4c3=O)CCCC5)C2)cc1`: the TGI in test [1] is above 100 µM; in test [2], above 100 µM; in [3] it was above 100 µM; in [4], 41.8 µM; in test [5], above 100 µM; in test [10], above 100 µM. Besides, the TGI in [6] was above 100 µM; in test [7] it was above 100 µM; in [8], above 100 µM; in [9], 57.1 µM.
